Ki data for 27 compounds are collected here from patent publication US6313177A, “D-mannitol derivatives as HIV aspartyl protease inhibitors” (Pharmacor Inc., priority 1999, dated 2001).

For this assay, the target named is T1, recombinant HIV-1 protease (Human immunodeficiency virus type 1 group M subtype B, UniProt P04585).
T1 construct: recombinant HIV-1 protease; purchased Bachem Bioscience
As to the kind of experiment: Fluorometric (FRET) enzymatic assay for the inhibition constant (Ki) against the HIV protease. Type of assay: biochemical. The text has this:
Enzymatic Assay for Determining the Inhibition Constant (Ki) of Synthetic Compounds Prepared Against the HIV Protease
This is a fluorometric assay based on the cleavage by protease of a substrate carrying a donor group (EDANS, excitation at 340 nm and emission at 490 nm) and an acceptor group (DABCYL) on each side of the cleavage site, interacting together through fluorescence resonance energy transfer (FRET). Cleavage of the substrate by protease stops energy exchange between the two groups, resulting in a time-dependent increase in fluorescence intensity that is linearly related to the extent of substrate hydrolysis.
The enzymatic assay is done at 30° C. in a spectrophotometer microcuvet, in a total volume of 400 μL. The apparatus used for readings is a UV-visible Cary 1 spectrophotometer made by Varian. The reaction is run first in the absence of protease inhibitors for 2 min, using 355 μL of buffer at pH 4.7 (sodium acetate 100 mM, NaCl 1 M, EDTA 1 mM, DTT 1 mM, dimethylsulfoxide 10%, and BSA 1 mg/mL), 40 μL of substrate H-2930 from Molecular Probes (final concentration 10 μM) and 5 μL of recombinant HIV-1 protease (final concentration 18.3 nM) purchased from Bachem Bioscience. Fluorescence readings at […] are taken continuously during the reaction, allowing determination of the enzyme's initial velocity (v0). At the end of the 2 min incubation, the potential inhibitor at a defined concentration in a volume of 2 μL is added to the reaction, and fluorescence readings are taken for another 2 min, allowing determination of enzyme velocity (vi) in the presence of the inhibitory compound. Several concentrations of the putative inhibitors are tested in the assay. After calculation of vo and vi, the inhibition constant (Ki) of the compound is determined using the equation of Henderson: [formula]
and [I]=inhibitor concentration, [S ]=substrate concentration, Km=Michaelis-Menten constant, Kiapp =apparent Ki
Note that the Michaelis-Menten constant of HIV protease is determined by running the assay without inhibitors, using several concentrations of substrate, and plotting the results as a Cornish-Bowden graph with the ratio substrate concentration/velocity as the ordinate and substrate concentration as the abscissa.

Where [1] appears, read: Table 2, tetra-substituted D-mannitol derivatives, pH 4.7, 30° C., substrate 10 μM, protease 18.3 nM.
Where [2] appears, read: Table 1, benzylated D-mannitol derivatives, pH 4.7, 30° C., substrate 10 μM, protease 18.3 nM.
The mark [3] stands for this setting: Table 3, di- and tri-substituted D-mannitol derivatives, pH 4.7, 30° C., substrate 10 μM, protease 18.3 nM.

SMILES strings stand for the structures. Read-outs that look alike come from different tables or passages of the source.

As a reminder, the Ki is the dissociation constant of the complex between target and ligand, obtained from inhibition or displacement. Regarding `O[C@@H]([C@H](O)[C@@H](COCc1c(F)cccc1F)OCc1ccc(F)cc1)[C@@H](COCc1c(F)cccc1F)OCc1ccc(F)cc1` [Compound 39, 1,6-di-O-(2,6-difluorobenzyl)-2,5-di-O-(4-fluorobenzyl)-D-mannitol], the Ki was 0.33 µM.

Regarding `O[C@@H]([C@H](O)[C@@H](COCC1CC1)OCc1ccccc1)[C@@H](COCC1CC1)OCc1ccccc1` [Compound 89, 1,6-di-O-cyclopropylmethyl-2,5-di-O-dibenzyl-D-mannitol], under setting [1], the Ki turned out to be 16 µM.

As to `Oc1ccc(COC[C@@H](OCc2ccc(F)cc2)[C@@H](O)[C@H](O)[C@@H](COCc2ccc(O)cc2)OCc2ccc(F)cc2)cc1` [Compound 4, 1,6-di-O-(4-hydroxybenzyl)-2,5-di-O-(4-fluorobenzyl)-D-mannitol], the Ki under setting [2] came out at 0.4 µM.

As to `COC(=O)c1ccc(CO[C@H](COCc2ccccc2)[C@@H](O)[C@H](O)[C@@H](COCc2ccccc2)OCc2ccc(C(=O)OC)cc2)cc1` [Compound 19, 1,6-di-O-benzyl-2,5-di-O-(4-carbomethoxybenzyl)-D-mannitol], under setting [2], the Ki amounted to 8.4 µM.

`O[C@@H]([C@H](O)[C@@H](COCC1CC1)OCC1CC1)[C@@H](COCC1CC1)OCC1CC1` [Compound 79, 1,2,5,6-tetra-O-cyclopropylmethyl-D-mannitol]: the Ki under setting [1] stood at 21 µM.

Regarding `O[C@@H]([C@H](O)[C@@H](COCc1ccccc1F)OCc1cccs1)[C@@H](COCc1ccccc1F)OCc1ccc(F)cc1` [Compound 97, 1,6-di-O-(2-fluorobenzyl)-2-O-(4-fluorobenzyl)-5-O-(2-thienylmethyl)-D-mannitol], the Ki under setting [1] stood at 0.23 µM.

As for `C=CCOC[C@@H](OCc1ccccc1)[C@@H](O)[C@H](O)[C@@H](COCC=C)OCc1ccccc1` [Compound 90, 1,6-di-O-allyl-2,5-di-O-benzyl-D-mannitol], the Ki under setting [1] is 12 µM.

Turning to `N#Cc1ccc(COC[C@@H](OCc2ccccc2)[C@@H](O)[C@H](O)[C@@H](COCc2ccc(C#N)cc2)OCc2ccccc2)cc1` [Compound 28, 1,6-di-O-(4-cyanobenzyl)-2,5-di-O-benzyl-D-mannitol], the Ki under setting [2] turned out to be 4.3 µM.

For the compound `OCc1ccc(CO[C@H](COCc2ccccc2)[C@@H](O)[C@H](O)[C@@H](COCc2ccccc2)OCc2ccc(CO)cc2)cc1` [Compound 45, 1,6-di-O-benzyl-2,5-di-O-(4-hydroxymethylbenzyl)-D-mannitol], the Ki was 10 µM.

Regarding `O[C@@H]([C@H](O)[C@@H](COCc1ccccc1F)OCc1ccccc1)[C@@H](COCc1ccccc1)OCc1ccccc1` [Compound 10, 1,2,5-tri-O-benzyl-6-O-(2-fluorobenzyl)-D-mannitol], under setting [2], the Ki stood at 0.4 µM.

With `O[C@@H]([C@H](O)[C@@H](COCc1ccccc1)OCc1ccc(C(F)(F)F)cc1)[C@@H](COCc1ccccc1)OCc1ccc(C(F)(F)F)cc1` [Compound 22, 1,6-di-O-benzyl-2,5-di-O-(4-trifluoromethylbenzyl)-D-mannitol], the Ki under setting [2] is 10 µM.

Regarding `O[C@@H]([C@H](O)[C@@H](COCc1ccccc1F)OCc1ccc(Br)cc1)[C@@H](COCc1ccccc1F)OCc1ccc(Br)cc1` [Compound 34, 1,6-di-O-(2-fluorobenzyl)-2,5-di-O-(4-bromobenzyl)-D-mannitol], under setting [2], the Ki came to 1.9 µM.

Consider `Nc1ccc(CO[C@H](COCc2ccccc2)[C@@H](O)[C@H](O)[C@@H](COCc2ccccc2)OCc2ccccc2)cc1` [Compound 9, 1,2,6-tri-O-benzyl-5-O-(4-aminobenzyl)-D-mannitol], for which the Ki under setting [2] amounted to 3.3 µM.

With `O[C@@H]([C@H](O)[C@@H](COCc1ccccc1)OCc1c(F)c(F)c(F)c(F)c1F)[C@@H](COCc1ccccc1)OCc1c(F)c(F)c(F)c(F)c1F` [Compound 15, 1,6-di-O-benzyl-2,5-di-O-(pentafluorobenzyl)-D-mannitol], the Ki under setting [2] was over 5 µM.

In the case of `O[C@@H]([C@H](O)[C@@H](COCc1cccc(F)c1)OCc1ccccc1)[C@@H](COCc1cccc(F)c1)OCc1ccccc1` [Compound 53, 1,6-di-O-(3-fluorobenzyl)-2,5-di-O-(benzyl)-D-mannitol], the Ki under setting [2] turned out to be 1.5 µM.

Take `O[C@@H]([C@H](O)[C@@H](COCc1ccccc1)OCc1c(F)cccc1F)[C@@H](COCc1ccccc1)OCc1c(F)cccc1F` [Compound 25, 1,6-di-O-benzyl-2,5-di-O-(2,6-difluorobenzyl)-D-mannitol]: the Ki under setting [2] came out at 6.4 µM.

For the compound `O[C@@H]([C@H](O)[C@@H](COCc1ccccc1F)OCc1ccccc1)[C@@H](COCc1ccccc1F)OCc1ccccc1` [Compound 32, 1,6-di-O-(2-fluorobenzyl)-2,5-di-O-benzyl-D-mannitol], under setting [2], the Ki was 0.6 µM.

On to `O[C@@H]([C@H](O)[C@@H](COCc1ccc(F)cc1)OCc1ccc(F)cc1)[C@@H](COCc1ccc(F)cc1)OCc1ccc(F)cc1` [Compound 52, 1,2,5,6-tetra-O-(4-fluorobenzyl)-D-mannitol], for which the Ki was 1.6 µM.

Take `O[C@@H]([C@H](O)[C@@H](COCc1ccccc1)OCc1cccc(F)c1)[C@@H](COCc1ccccc1)OCc1cccc(F)c1` [Compound 20, 1,6-di-O-benzyl-2,5-di-O-(3-fluorobenzyl)-D-mannitol]: under setting [2], the Ki is 1.8 µM.

Consider `O[C@@H]([C@H](O)[C@@H](COCc1ccccc1)OCc1cccs1)[C@@H](COCc1ccccc1)OCc1ccc(F)cc1` [Compound 96, 1,6-di-O-benzyl-2-O-(4-fluorobenzyl)-5-O-(2-thienylmethyl)-D-mannitol], for which, under setting [1], the inhibitory constant (Ki) was determined as 0.23 µM.

On to `CSC(=S)O[C@H](COCc1ccccc1)[C@@H](O)[C@H](O)[C@@H](COCc1ccccc1)OC(=S)SC` [Compound 101, 1,6-di-O-benzyl-2,5-di-O-(methylthiothioxo)-D-mannitol], for which the Ki under setting [3] is over 5 µM.

For the compound `O=C(O[C@H](COCc1ccccc1)[C@@H](O)[C@H](O)[C@@H](COCc1ccccc1)OC(=O)c1ccccc1)c1ccccc1` [Compound 109, 1,6-di-O-benzyl-2,5-di-O-benzoyl-D-mannitol], the Ki under setting [3] is 10 µM.

In the case of `O[C@@H]([C@H](O)[C@@H](COCc1ccc(OCc2ccccc2)cc1)OCc1ccc(F)cc1)[C@@H](COCc1ccc(OCc2ccccc2)cc1)OCc1ccc(F)cc1` [Compound 58, 1,6-di-O-(4-benzyloxybenzyl)-2,5-di-O-(4-fluorobenzyl)-D-mannitol], the Ki under setting [2] amounted to 5 µM.

Take `O=C(O)c1ccc(COC[C@@H](OCc2ccccc2)[C@@H](O)[C@H](O)[C@@H](COCc2ccc(C(=O)O)cc2)OCc2ccccc2)cc1` [Compound 51, 1,6-di-O-(4-carboxybenzyl)-2,5-di-O-benzyl-D-mannitol]: the Ki under setting [2] turned out to be 5 µM.

As to `O[C@@H]([C@H](O)[C@@H](COCC=Cc1ccccc1)OCc1ccccc1)[C@@H](COCC=Cc1ccccc1)OCc1ccccc1` [Compound 94, 1,6-di-O-cinnamyl-2,5-di-O-benzyl-D-mannitol], the Ki under setting [1] was over 1 µM.

Turning to `COC(=O)c1ccc(COC[C@@H](OCc2ccccc2)[C@@H](O)[C@H](O)[C@@H](COCc2ccc(C(=O)OC)cc2)OCc2ccccc2)cc1` [Compound 29, 1,6-di-O-(4-carbomethoxybenzyl)-2,5-di-O-benzyl-D-mannitol], under setting [2], the Ki is 2 µM.

Consider `NCc1ccc(CO[C@H](COCc2ccccc2)[C@@H](O)[C@H](O)[C@@H](COCc2ccccc2)OCc2ccc(CN)cc2)cc1` [Compound 46, 1,6-di-O-benzyl-2,5-di-O-(4-aminomethylbenzyl)-D-mannitol], for which, under setting [2], the Ki was determined as 27 µM.
